# PubChem BioAssay AID1918991 (Molecular Pharmacology Branch, DTP, NCI, 2023)
# “And” between values parts separate entries of the source, which are not always exact repeats. Equal entries are not always repeated.
# System: 186277-243-T-J2-PDC complex spheroid growth
# Experiment: Anticancer human tumor 186277-243-T-J2-PDC patient-derived colon adenocarcinoma cell line growth inhibition [AhR]
# Settings: for viability, T/C: stronger effect = lower value
# Method in brief: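 Complex tumor spheroids co-cultured with HUVEC and human MSC stroma; AhR antagonists tested in combination with standard-of-care and investigational agents. Top concentration at or near clinical Cmax (else 10 microM), half-log dilutions; growth expressed as percent test/control.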
# [1] = curve of first compound, second compound 0.1 µM
# [2] = curve of first compound, second compound 0.316 µM
# [3] = curve of first compound, second compound 1 µM
# [4] = curve of first compound, second compound 3.16 µM
# [5] = curve of first compound, second compound 10 µM
# [6] = second compound 0.1 µM, first compound 0.0316 µM
# [7] = second compound 0.1 µM, first compound 0.1 µM
# [8] = second compound 0.1 µM, first compound 0.316 µM
# [9] = second compound 0.1 µM, first compound 1 µM
# [10] = second compound 0.316 µM, first compound 0.0316 µM
# [11] = second compound 0.316 µM, first compound 0.1 µM
# [12] = second compound 0.316 µM, first compound 0.316 µM
# [13] = second compound 0.316 µM, first compound 1 µM
# [14] = second compound 1 µM, first compound 0.0316 µM
# [15] = second compound 1 µM, first compound 0.1 µM
# [16] = second compound 1 µM, first compound 0.316 µM
# [17] = second compound 1 µM, first compound 1 µM
# [18] = second compound 3.16 µM, first compound 0.0316 µM
# [19] = second compound 3.16 µM, first compound 0.1 µM
# [20] = second compound 3.16 µM, first compound 0.316 µM
# [21] = second compound 3.16 µM, first compound 1 µM
# [22] = second compound 10 µM, first compound 0.0316 µM
# [23] = second compound 10 µM, first compound 0.1 µM
# [24] = second compound 10 µM, first compound 0.316 µM
# [25] = second compound 10 µM, first compound 1 µM
# 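Note: spheroids exposed to compounds for seven days before the viability read.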
# 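Throughout, for viability, T/C: luminescent signal used as a stand-in for viable cell amount; 100% = DMSO vehicle control wells.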
smiles,measurement,setting,value
O=C(C=Cc1cccc(S(=O)(=O)Nc2ccccc2)c1)NO + Cc1cncc(-c2nc(NCCc3c[nH]c4ccccc34)c3ncn(C(C)C)c3n2)c1,IC50,[1],955 nM
same,IC50,[2],832 nM
same,IC50,[3],818 nM
same,IC50,[4],756 nM
same,IC50,[5],168 nM
same,"viability, T/C",[6],98.9%
same,"viability, T/C",[7],89.6%
same,"viability, T/C",[8],94%
same,"viability, T/C",[9],47.9%
same,"viability, T/C","second compound 0.1 µM, first compound 3.16 µM",8.19%
same,"viability, T/C","second compound 0.1 µM, first compound 10 µM",2.59%
same,"viability, T/C",[10],92.1%
same,"viability, T/C",[11],89.1%
same,"viability, T/C",[12],94.8%
same,"viability, T/C",[13],42%
same,"viability, T/C","second compound 0.316 µM, first compound 3.16 µM",7.8%
same,"viability, T/C","second compound 0.316 µM, first compound 10 µM",2.18%
same,"viability, T/C",[14],105%
same,"viability, T/C",[15],95.7%
same,"viability, T/C",[16],86.8%
same,"viability, T/C",[17],42.2%
same,"viability, T/C","second compound 1 µM, first compound 3.16 µM",9.76%
same,"viability, T/C","second compound 1 µM, first compound 10 µM",2.85%
same,"viability, T/C",[18],106%
same,"viability, T/C",[19],103%
same,"viability, T/C",[20],111%
same,"viability, T/C",[21],31.8%
same,"viability, T/C","second compound 3.16 µM, first compound 3.16 µM",10.6%
same,"viability, T/C","second compound 3.16 µM, first compound 10 µM",3.82%
same,"viability, T/C",[22],76.9%
same,"viability, T/C",[23],67.9%
same,"viability, T/C",[24],28.2%
same,"viability, T/C",[25],10.7%
same,"viability, T/C","second compound 10 µM, first compound 3.16 µM",6.37%
same,"viability, T/C","second compound 10 µM, first compound 10 µM",3.77%
CC(C)c1c(-c2ccccc2)nc2c(C#N)c[nH]n2c1=O,"viability, T/C",compound 0.0316 µM,103% and 105% and 93.4%
same,"viability, T/C",compound 0.1 µM,88.8% and 101% and 94.2%
same,"viability, T/C",compound 0.316 µM,107% and 95.9% and 94.8%
same,"viability, T/C",compound 1 µM,103% and 113% and 97.7%
same,"viability, T/C",compound 3.16 µM,96.4% and 107% and 96.9%
same,"viability, T/C",compound 10 µM,92% and 105% and 91.7%
same,IC50,curve of compound,> 10000 nM
Nc1ncn(C2CC(O)C(CO)O2)c(=O)n1 (configuration not stated) + Cc1ccccc1N=Nc1ccc(NC(=O)c2ccnn2C)c(C)c1,IC50,[1],> 1000 nM
same,IC50,[2],> 1000 nM
same,IC50,[3],> 1000 nM
same,IC50,[4],> 1000 nM
same,IC50,[5],> 1000 nM
same,"viability, T/C","second compound 0.1 µM, first compound 0.00316 µM",115%
same,"viability, T/C","second compound 0.1 µM, first compound 0.01 µM",108%
same,"viability, T/C",[6],105%
same,"viability, T/C",[7],112%
same,"viability, T/C",[8],103%
same,"viability, T/C",[9],143%
same,"viability, T/C","second compound 0.316 µM, first compound 0.00316 µM",118%
same,"viability, T/C","second compound 0.316 µM, first compound 0.01 µM",96.8%
same,"viability, T/C",[10],108%
same,"viability, T/C",[11],115%
same,"viability, T/C",[12],120%
same,"viability, T/C",[13],144%
same,"viability, T/C","second compound 1 µM, first compound 0.00316 µM",100%
same,"viability, T/C","second compound 1 µM, first compound 0.01 µM",102%
same,"viability, T/C",[14],102%
same,"viability, T/C",[15],128%
same,"viability, T/C",[16],119%
same,"viability, T/C",[17],144%
same,"viability, T/C","second compound 3.16 µM, first compound 0.00316 µM",103%
same,"viability, T/C","second compound 3.16 µM, first compound 0.01 µM",128%
same,"viability, T/C",[18],101%
same,"viability, T/C",[19],105%
same,"viability, T/C",[20],113%
same,"viability, T/C",[21],122%
same,"viability, T/C","second compound 10 µM, first compound 0.00316 µM",90.2%
same,"viability, T/C","second compound 10 µM, first compound 0.01 µM",97.2%
same,"viability, T/C",[22],103%
same,"viability, T/C",[23],109%
same,"viability, T/C",[24],104%
same,"viability, T/C",[25],103%
CCN(c1cc(-c2ccc(CN3CCOCC3)cc2)cc(C(=O)NCc2c(C)cc(C)[nH]c2=O)c1C)C1CCOCC1 + Cc1ccccc1N=Nc1ccc(NC(=O)c2ccnn2C)c(C)c1,IC50,[1],> 3000 nM
same,IC50,[2],> 3000 nM
same,IC50,[3],> 3000 nM
same,IC50,[4],> 3000 nM
same,IC50,[5],> 3000 nM
same,"viability, T/C","second compound 0.1 µM, first compound 0.00949 µM",105%
same,"viability, T/C","second compound 0.1 µM, first compound 0.03 µM",118%
same,"viability, T/C","second compound 0.1 µM, first compound 0.0949 µM",112%
same,"viability, T/C","second compound 0.1 µM, first compound 0.3 µM",108%
same,"viability, T/C","second compound 0.1 µM, first compound 0.949 µM",102%
same,"viability, T/C","second compound 0.1 µM, first compound 3 µM",102%
same,"viability, T/C","second compound 0.316 µM, first compound 0.00949 µM",95.7%
same,"viability, T/C","second compound 0.316 µM, first compound 0.03 µM",109%
same,"viability, T/C","second compound 0.316 µM, first compound 0.0949 µM",100%
same,"viability, T/C","second compound 0.316 µM, first compound 0.3 µM",105%
same,"viability, T/C","second compound 0.316 µM, first compound 0.949 µM",103%
same,"viability, T/C","second compound 0.316 µM, first compound 3 µM",112%
same,"viability, T/C","second compound 1 µM, first compound 0.00949 µM",104%
same,"viability, T/C","second compound 1 µM, first compound 0.03 µM",102%
same,"viability, T/C","second compound 1 µM, first compound 0.0949 µM",102%
same,"viability, T/C","second compound 1 µM, first compound 0.3 µM",94.5%
same,"viability, T/C","second compound 1 µM, first compound 0.949 µM",100%
same,"viability, T/C","second compound 1 µM, first compound 3 µM",112%
same,"viability, T/C","second compound 3.16 µM, first compound 0.00949 µM",91%
same,"viability, T/C","second compound 3.16 µM, first compound 0.03 µM",94.7%
same,"viability, T/C","second compound 3.16 µM, first compound 0.0949 µM",99.5%
same,"viability, T/C","second compound 3.16 µM, first compound 0.3 µM",94%
same,"viability, T/C","second compound 3.16 µM, first compound 0.949 µM",107%
same,"viability, T/C","second compound 3.16 µM, first compound 3 µM",104%
same,"viability, T/C","second compound 10 µM, first compound 0.00949 µM",89.9%
same,"viability, T/C","second compound 10 µM, first compound 0.03 µM",91.2%
same,"viability, T/C","second compound 10 µM, first compound 0.0949 µM",86.3%
same,"viability, T/C","second compound 10 µM, first compound 0.3 µM",79.8%
same,"viability, T/C","second compound 10 µM, first compound 0.949 µM",84.2%
same,"viability, T/C","second compound 10 µM, first compound 3 µM",93.2%
